Data taken from ChEMBL document CHEMBL3797119, “Pharmacokinetic Study of Two Macrolide Antibiotic Oral Suspensions Using an Optimized Bioassay Procedure” (J Bioequivalence Bioavailab, 2010).

Assays:
Type in all cases: ADME, organism-based
Settings in all cases: in vivo
[1] = Tmax in healthy human (24 volunteers) at 400 mg, po reference formulation of drug administered as single dose
Homo sapiens [2] = assay: Ratio of Cmax in healthy human (24 volunteers) at 400 mg, po test formulation of drug administered as single dose to Cmax in healthy human (24 volunteers) at 400 mg, po reference formulation of drug administered as single dose
Homo sapiens [3] = assay: First order inter-compartment transfer rate constant from peripheral to central compartment in healthy human (24 volunteers) at 400 mg, po reference formulation of drug administered as single dose by two-compartmental open model
Homo sapiens [4] = assay: First order inter-compartment transfer rate constant from central to peripheral compartment in healthy human (24 volunteers) at 400 mg, po test formulation of drug administered as single dose by two-compartmental open model
Homo sapiens [5] = assay: Ratio of AUC (0 to t) in healthy human (24 volunteers) at 400 mg, po test formulation of drug administered as single dose to AUC (0 to t) in healthy human (24 volunteers) at 400 mg, po reference formulation of drug administered as single dose
Homo sapiens [6] = assay: Ratio of AUC (0 to infinity) in healthy human (24 volunteers) at 400 mg, po test formulation of drug administered as single dose to AUC (0 to t) in healthy human (24 volunteers) at 400 mg, po reference formulation of drug administered as single dose
[7] = Clearance in healthy human (24 volunteers) at 400 mg, po test formulation of drug administered as single dose by two-compartmental open model
[8] = Elimination rate constant from central compartment in healthy human (24 volunteers) at 400 mg, po reference formulation of drug administered as single dose by two-compartmental open model
[9] = AUC (0 to infinity) in healthy human (24 volunteers) at 400 mg, po test formulation of drug administered as single dose measured after 0.5 to 10 hrs; design: dose 400 mg, time infinity, route oral
Homo sapiens [10] = assay: Volume of distribution in healthy human (24 volunteers) at 400 mg, po reference formulation of drug administered as single dose by two-compartmental open model
[11] = AUC (0 to infinity) in healthy human (24 volunteers) at 400 mg, po reference formulation of drug administered as single dose measured after 0.5 to 10 hrs; design: dose 400 mg, route oral, time infinity
[12] = AUC (0 to t) in healthy human (24 volunteers) at 400 mg, po reference formulation of drug administered as single dose measured after 0.5 to 10 hrs; design: time lower 0.5 hr, dose 400 mg, time upper 10 hr, route oral
[13] = Tmax in healthy human (24 volunteers) at 400 mg, po test formulation of drug administered as single dose
[14] = Half life in healthy human (24 volunteers) at 400 mg, po reference formulation of drug administered as single dose
Homo sapiens [15] = assay: First order inter-compartment transfer rate constant from central to peripheral compartment in healthy human (24 volunteers) at 400 mg, po reference formulation of drug administered as single dose by two-compartmental open model
[16] = Cmax in healthy human (24 volunteers) at 400 mg, po reference formulation of drug administered as single dose measured after 0.5 to 10 hrs; design: dose 400 mg, route oral
[17] = Half life in healthy human (24 volunteers) at 400 mg, po test formulation of drug administered as single dose
[18] = Elimination rate constant from central compartment in healthy human (24 volunteers) at 400 mg, po test formulation of drug administered as single dose by two-compartmental open model
[19] = Cmax in healthy human (24 volunteers) at 400 mg, po test formulation of drug administered as single dose measured after 0.5 to 10 hrs; design: dose 400 mg, route oral
Homo sapiens [20] = assay: Volume of distribution in healthy human (24 volunteers) at 400 mg, po test formulation of drug administered as single dose by two-compartmental open model
[21] = Clearance in healthy human (24 volunteers) at 400 mg, po reference formulation of drug administered as single dose by two-compartmental open model
[22] = AUC (0 to t) in healthy human (24 volunteers) at 400 mg, po test formulation of drug administered as single dose measured after 0.5 to 10 hrs; design: time 0.5-10 hr, dose 400 mg, route oral
Homo sapiens [23] = assay: First order inter-compartment transfer rate constant from peripheral to central compartment in healthy human (24 volunteers) at 400 mg, po test formulation of drug administered as single dose by two-compartmental open model
Homo sapiens [24] = assay: Ratio of AUC (0 to t) in healthy human (24 volunteers) at 500 mg, po test formulation of drug administered as single dose to AUC (0 to t) in healthy human (24 volunteers) at 500 mg, po reference formulation of drug administered as single dose
Homo sapiens [25] = assay: Ratio of Cmax in healthy human (24 volunteers) at 500 mg, po test formulation of drug administered as single dose to Cmax in healthy human (24 volunteers) at 500 mg, po reference formulation of drug administered as single dose
[26] = Elimination rate constant from central compartment in healthy human (24 volunteers) at 500 mg, po test formulation of drug administered as single dose by two-compartmental open model
Homo sapiens [27] = assay: Volume of distribution in healthy human (24 volunteers) at 500 mg, po reference formulation of drug administered as single dose by two-compartmental open model
[28] = Cmax in healthy human (24 volunteers) at 500 mg, po test formulation of drug administered as single dose measured after 0.5 to 72 hrs; design: dose 500 mg, route oral
[29] = AUC (0 to t) in healthy human (24 volunteers) at 500 mg, po reference formulation of drug administered as single dose measured after 0.5 to 72 hrs; design: time upper 72 hr, dose 500 mg, time lower 0.5 hr, route oral
[30] = Tmax in healthy human (24 volunteers) at 500 mg, po reference formulation of drug administered as single dose
[31] = AUC (0 to t) in healthy human (24 volunteers) at 500 mg, po test formulation of drug administered as single dose measured after 0.5 to 72 hrs; design: time upper 72 hr, time lower 0.5 hr, dose 500 mg, route oral
Homo sapiens [32] = assay: First order inter-compartment transfer rate constant from peripheral to central compartment in healthy human (24 volunteers) at 500 mg, po test formulation of drug administered as single dose by two-compartmental open model
[33] = Elimination rate constant from central compartment in healthy human (24 volunteers) at 500 mg, po reference formulation of drug administered as single dose by two-compartmental open model
Homo sapiens [34] = assay: Volume of distribution in healthy human (24 volunteers) at 500 mg, po test formulation of drug administered as single dose by two-compartmental open model
[35] = AUC (0 to infinity) in healthy human (24 volunteers) at 500 mg, po reference formulation of drug administered as single dose measured after 0.5 to 72 hrs; design: dose 500 mg, time infinity, route oral
Homo sapiens [36] = assay: First order inter-compartment transfer rate constant from peripheral to central compartment in healthy human (24 volunteers) at 500 mg, po reference formulation of drug administered as single dose by two-compartmental open model
Homo sapiens [37] = assay: Ratio of AUC (0 to infinity) in healthy human (24 volunteers) at 500 mg, po test formulation of drug administered as single dose to AUC (0 to t) in healthy human (24 volunteers) at 500 mg, po reference formulation of drug administered as single dose
Homo sapiens [38] = assay: First order inter-compartment transfer rate constant from central to peripheral compartment in healthy human (24 volunteers) at 500 mg, po reference formulation of drug administered as single dose by two-compartmental open model
[39] = Clearance in healthy human (24 volunteers) at 500 mg, po test formulation of drug administered as single dose by two-compartmental open model
[40] = Tmax in healthy human (24 volunteers) at 500 mg, po test formulation of drug administered as single dose
[41] = Half life in healthy human (24 volunteers) at 500 mg, po test formulation of drug administered as single dose
[42] = Cmax in healthy human (24 volunteers) at 500 mg, po reference formulation of drug administered as single dose measured after 0.5 to 72 hrs; design: dose 500 mg, route oral
Homo sapiens [43] = assay: First order inter-compartment transfer rate constant from central to peripheral compartment in healthy human (24 volunteers) at 500 mg, po test formulation of drug administered as single dose by two-compartmental open model
[44] = Clearance in healthy human (24 volunteers) at 500 mg, po reference formulation of drug administered as single dose by two-compartmental open model
[45] = AUC (0 to infinity) in healthy human (24 volunteers) at 500 mg, po test formulation of drug administered as single dose measured after 0.5 to 72 hrs; design: dose 500 mg, route oral, time infinity
[46] = Half life in healthy human (24 volunteers) at 500 mg, po reference formulation of drug administered as single dose

What does the source list for `CC[C@H]1OC(=O)[C@H](C)[C@@H](O[C@H]2C[C@@](C)(OC)[C@@H](O)[C@H](C)O2)[C@H](C)[C@@H](O[C@@H]2O[C@H](C)C[C@H](N(C)C)[C@H]2O)[C@](C)(O)C[C@@H](C)C(=O)[C@H](C)[C@@H](O)[C@]1(C)O` [ERYTHROMYCIN]?
Tmax [1]: 1.38 h; Ratio (Homo sapiens [2]): 1.07; K (Homo sapiens [3]): 1.23 h⁻¹; K (Homo sapiens [4]): 2.26 h⁻¹; Ratio AUC (Homo sapiens [5]): 1.03; Ratio AUC (Homo sapiens [6]): 1.04; CL/F [7]: 225 mL/min/kg; k el [8]: 0.000123 s⁻¹; AUC(0-inf) [9]: 4850 ng·h/mL; Vd (Homo sapiens [10]): 8.8 L/kg; AUC(0-inf) [11]: 4790 ng·h/mL; AUC(0-t) [12]: 4010 ng·h/mL; Tmax [13]: 1.4 h; half-life [14]: 3.61 h; K (Homo sapiens [15]): 1.34 h⁻¹; Cmax [16]: 1120 ng/mL; half-life [17]: 3.64 h; k el [18]: 0.000229 s⁻¹; Cmax [19]: 1170 ng/mL; Vd (Homo sapiens [20]): 10.4 L/kg; CL/F [21]: 23.3 mL/min/kg; AUC(0-t) [22]: 4020 ng·h/mL; K (Homo sapiens [23]): 0.415 h⁻¹

Which results are given for `CC[C@@H]1OC(=O)[C@H](C)[C@@H](O[C@@H]2C[C@](C)(OC)[C@H](O)[C@@H](C)O2)[C@@H](C)[C@@H](O[C@@H]2O[C@H](C)C[C@H](N(C)C)[C@H]2O)[C@](C)(O)C[C@@H](C)CN(C)[C@H](C)[C@@H](O)[C@]1(C)O`?
Ratio AUC (Homo sapiens [24]): 0.95; Ratio (Homo sapiens [25]): 1; k el [26]: 2.5e-05 s⁻¹; Vd (Homo sapiens [27]): 36.8 L/kg; Cmax [28]: 486 ng/mL; AUC(0-t) [29]: 8050 ng·h/mL; Tmax [30]: 2.08 h; AUC(0-t) [31]: 7580 ng·h/mL; K (Homo sapiens [32]): 0.084 h⁻¹; k el [33]: 2.72e-05 s⁻¹; Vd (Homo sapiens [34]): 32.2 L/kg; AUC(0-inf) [35]: 8440 ng·h/mL; K (Homo sapiens [36]): 0.103 h⁻¹; Ratio AUC (Homo sapiens [37]): 0.96; K (Homo sapiens [38]): 0.405 h⁻¹; CL/F [39]: 139 mL/min/kg; Tmax [40]: 1.96 h; half-life [41]: 25 h; Cmax [42]: 488 ng/mL; K (Homo sapiens [43]): 0.419 h⁻¹; CL/F [44]: 103 mL/min/kg; AUC(0-inf) [45]: 7990 ng·h/mL; half-life [46]: 25.2 h
